We go through one compound from article PMC12152945, “Computational Design of Lysine Targeting Covalent Binders Using Rosetta” (Journal of Chemical Information and Modeling, 2025).

In one assay the target is T1, MKK7 kinase domain (Homo sapiens, UniProt O14733).
T1 construct: gene MAP2K7; His-tagged kinase domain for intact-protein LC/MS
T1 sequence (O14733 117-419 limits assumed): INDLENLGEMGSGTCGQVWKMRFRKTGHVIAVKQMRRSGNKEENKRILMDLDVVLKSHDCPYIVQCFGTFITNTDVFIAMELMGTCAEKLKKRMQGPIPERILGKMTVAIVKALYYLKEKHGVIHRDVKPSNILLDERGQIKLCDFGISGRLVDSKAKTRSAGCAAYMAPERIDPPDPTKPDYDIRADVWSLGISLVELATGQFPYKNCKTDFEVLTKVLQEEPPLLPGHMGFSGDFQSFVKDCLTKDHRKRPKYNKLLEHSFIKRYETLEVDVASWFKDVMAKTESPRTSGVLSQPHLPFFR
The assay is described as follows: intact protein LC/MS. The class given is binding. The settings on record: covalent, reversible imine trapped with 5 mM NaBH4; 2 μM protein, HEPES pH 7.5, overnight 4 °C.

A further assay deals with T2, MKK7 (Homo sapiens, UniProt O14733).
T2 construct: gene MAP2K7; GST or His-tagged kinase from Reaction Biology (33PanQinase assay)
T2 sequence (O14733 2-419): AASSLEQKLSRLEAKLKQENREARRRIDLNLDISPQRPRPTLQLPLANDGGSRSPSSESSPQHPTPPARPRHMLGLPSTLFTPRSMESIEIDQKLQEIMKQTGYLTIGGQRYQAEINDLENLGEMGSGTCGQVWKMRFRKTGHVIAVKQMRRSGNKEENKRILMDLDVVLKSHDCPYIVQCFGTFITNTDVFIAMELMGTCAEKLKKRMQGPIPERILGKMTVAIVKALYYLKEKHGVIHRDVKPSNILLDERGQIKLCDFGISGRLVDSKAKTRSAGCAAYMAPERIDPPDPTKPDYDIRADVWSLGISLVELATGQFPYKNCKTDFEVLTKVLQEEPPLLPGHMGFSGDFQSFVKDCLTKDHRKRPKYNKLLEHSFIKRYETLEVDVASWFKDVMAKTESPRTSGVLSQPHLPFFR
The assay is described as follows: radiometric […] kinase assay ([…]PanQinase). The class given is biochemical. The settings on record: 3 μM ATP, 75.6 nM MKK7, JNK1 K55R K56R substrate; 3 mM MgCl2, 3 mM MnCl2, pH 7.5, 30 °C; 30 min preincubation; reversible covalent (imine, Lys221).

Usually IC50 stands for the point on the concentration scale where inhibition reaches its midpoint. High values mean a need for much substance, low ones inhibition by little substance.

With `O=Cc1ccc(-c2n[nH]c3ccccc23)cc1O` [compound 1], the “intact protein LC/MS” value on MKK7 kinase domain is “Significant labeling was detected only after the reduction of the complex”. Moreover, the half-maximal inhibitory concentration (IC50) on MKK7 is 0.738 µM.
